In the kinase profiling compilation of Christmann-Franck et al. (2016):

What was measured:
Test in all cases: KINOMEscan competition binding
Details in all cases: compound 10.0 µM
[1] = molecular target: FER (human) (UniProt P16591)
[2] = molecular target: MYO3B (human) (UniProt Q8WXR4)
[3] = molecular target: EGFR (human) (UniProt P00533)
[4] = molecular target: LYN (human) (UniProt P07948)
[5] = molecular target: CDK15 (human) (UniProt Q96Q40)
[6] = test system: FLT3 (human), P36888 [D835Y]
[7] = molecular target: EPHB2 (human) (UniProt P29323)
[8] = molecular target: INSRR (human) (UniProt P14616)
[9] = molecular target: CDK8 (human) (UniProt P49336)
[10] = molecular target: IKBKB (human) (UniProt O14920)
[11] = molecular target: STK35 (human) (UniProt Q8TDR2)
[12] = molecular target: RAF1 (human) (UniProt P04049)
[13] = molecular target: MAP4K2 (human) (UniProt Q12851)
[14] = molecular target: TTK (human) (UniProt P33981)
[15] = molecular target: PRKACB (human) (UniProt P22694)
[16] = molecular target: PDGFRA (human) (UniProt P16234)
[17] = test system: ABL1 (human), P00519 [F317L]
[18] = molecular target: LATS2 (human) (UniProt Q9NRM7)
[19] = test system: ABL1 (human), P00519 [F317I]
[20] = molecular target: ABL2 (human) (UniProt P42684)
[21] = molecular target: CDC2L2 (human) (UniProt Q9UQ88)
[22] = molecular target: SIK1 (human) (UniProt P57059)
[23] = molecular target: CIT (human) (UniProt O14578)
[24] = molecular target: FGR (human) (UniProt P09769)
[25] = molecular target: FGFR3 (human) (UniProt P22607)
[26] = molecular target: RPS6KA5 KD1 (human) (UniProt O75582)
[27] = molecular target: MAPK8 (human) (UniProt P45983)
[28] = molecular target: FLT1 (human) (UniProt P17948)
[29] = molecular target: INSR (human) (UniProt P06213)
[30] = molecular target: HIPK1 (human) (UniProt Q86Z02)
[31] = molecular target: PRKAA1 (human) (UniProt Q13131)
[32] = molecular target: CDK14 (human) (UniProt O94921)
[33] = molecular target: EPHA3 (human) (UniProt P29320)
[34] = molecular target: FES (human) (UniProt P07332)
[35] = molecular target: LCK (human) (UniProt P06239)
[36] = molecular target: MYLK2 (human) (UniProt Q9H1R3)
[37] = molecular target: MAPK12 (human) (UniProt P53778)
[38] = molecular target: ABL1 (human) (UniProt P00519)
[39] = test system: ABL1 (human), P00519 [H396P]
[40] = molecular target: ERBB4 (human) (UniProt Q15303)
[41] = molecular target: TXK (human) (UniProt P42681)

Sequence of CDK8 (human) (P49336 whole entry, looked up): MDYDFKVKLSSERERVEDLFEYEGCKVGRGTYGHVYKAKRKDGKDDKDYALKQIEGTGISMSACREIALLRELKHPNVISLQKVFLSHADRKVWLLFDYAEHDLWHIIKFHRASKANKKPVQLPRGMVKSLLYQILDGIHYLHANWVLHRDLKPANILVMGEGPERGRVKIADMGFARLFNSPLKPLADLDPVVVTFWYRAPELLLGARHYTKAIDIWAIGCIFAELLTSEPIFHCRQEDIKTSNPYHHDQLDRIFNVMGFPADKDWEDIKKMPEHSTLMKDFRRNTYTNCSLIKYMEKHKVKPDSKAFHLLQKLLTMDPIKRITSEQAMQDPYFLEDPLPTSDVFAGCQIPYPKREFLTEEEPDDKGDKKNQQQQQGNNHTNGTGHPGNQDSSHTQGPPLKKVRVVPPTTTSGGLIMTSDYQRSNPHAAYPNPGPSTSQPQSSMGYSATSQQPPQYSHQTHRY
Sequence of LATS2 (human) (Q9NRM7 whole entry, looked up): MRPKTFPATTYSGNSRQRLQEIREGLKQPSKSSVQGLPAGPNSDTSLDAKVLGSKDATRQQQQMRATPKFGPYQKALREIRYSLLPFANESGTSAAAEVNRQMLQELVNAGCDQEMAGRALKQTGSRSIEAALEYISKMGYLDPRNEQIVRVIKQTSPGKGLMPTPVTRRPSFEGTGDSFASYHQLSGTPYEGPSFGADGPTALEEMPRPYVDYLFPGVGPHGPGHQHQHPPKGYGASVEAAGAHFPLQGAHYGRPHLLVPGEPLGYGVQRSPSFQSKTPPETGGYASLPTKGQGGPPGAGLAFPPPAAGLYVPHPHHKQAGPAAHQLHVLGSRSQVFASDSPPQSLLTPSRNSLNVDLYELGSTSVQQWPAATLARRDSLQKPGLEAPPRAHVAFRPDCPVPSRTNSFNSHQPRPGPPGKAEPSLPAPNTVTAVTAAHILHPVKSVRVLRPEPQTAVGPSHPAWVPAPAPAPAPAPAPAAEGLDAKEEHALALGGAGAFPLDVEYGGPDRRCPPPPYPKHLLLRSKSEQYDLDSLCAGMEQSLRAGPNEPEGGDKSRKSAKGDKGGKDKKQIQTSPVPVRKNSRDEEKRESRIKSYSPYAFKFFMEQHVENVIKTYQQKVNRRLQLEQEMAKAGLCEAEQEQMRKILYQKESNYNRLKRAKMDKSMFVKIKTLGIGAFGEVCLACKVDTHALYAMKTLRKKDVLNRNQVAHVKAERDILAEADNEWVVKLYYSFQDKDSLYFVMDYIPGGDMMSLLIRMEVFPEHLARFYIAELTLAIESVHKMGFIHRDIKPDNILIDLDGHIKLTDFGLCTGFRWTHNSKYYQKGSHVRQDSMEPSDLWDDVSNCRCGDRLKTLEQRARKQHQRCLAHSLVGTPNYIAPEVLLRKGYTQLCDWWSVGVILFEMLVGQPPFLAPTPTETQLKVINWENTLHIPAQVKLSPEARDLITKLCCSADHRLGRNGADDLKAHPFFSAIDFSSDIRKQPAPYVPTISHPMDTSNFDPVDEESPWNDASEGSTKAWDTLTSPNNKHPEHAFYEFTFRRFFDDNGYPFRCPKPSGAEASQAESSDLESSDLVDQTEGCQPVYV
Sequence of FLT1 (human) (P17948 whole entry, looked up): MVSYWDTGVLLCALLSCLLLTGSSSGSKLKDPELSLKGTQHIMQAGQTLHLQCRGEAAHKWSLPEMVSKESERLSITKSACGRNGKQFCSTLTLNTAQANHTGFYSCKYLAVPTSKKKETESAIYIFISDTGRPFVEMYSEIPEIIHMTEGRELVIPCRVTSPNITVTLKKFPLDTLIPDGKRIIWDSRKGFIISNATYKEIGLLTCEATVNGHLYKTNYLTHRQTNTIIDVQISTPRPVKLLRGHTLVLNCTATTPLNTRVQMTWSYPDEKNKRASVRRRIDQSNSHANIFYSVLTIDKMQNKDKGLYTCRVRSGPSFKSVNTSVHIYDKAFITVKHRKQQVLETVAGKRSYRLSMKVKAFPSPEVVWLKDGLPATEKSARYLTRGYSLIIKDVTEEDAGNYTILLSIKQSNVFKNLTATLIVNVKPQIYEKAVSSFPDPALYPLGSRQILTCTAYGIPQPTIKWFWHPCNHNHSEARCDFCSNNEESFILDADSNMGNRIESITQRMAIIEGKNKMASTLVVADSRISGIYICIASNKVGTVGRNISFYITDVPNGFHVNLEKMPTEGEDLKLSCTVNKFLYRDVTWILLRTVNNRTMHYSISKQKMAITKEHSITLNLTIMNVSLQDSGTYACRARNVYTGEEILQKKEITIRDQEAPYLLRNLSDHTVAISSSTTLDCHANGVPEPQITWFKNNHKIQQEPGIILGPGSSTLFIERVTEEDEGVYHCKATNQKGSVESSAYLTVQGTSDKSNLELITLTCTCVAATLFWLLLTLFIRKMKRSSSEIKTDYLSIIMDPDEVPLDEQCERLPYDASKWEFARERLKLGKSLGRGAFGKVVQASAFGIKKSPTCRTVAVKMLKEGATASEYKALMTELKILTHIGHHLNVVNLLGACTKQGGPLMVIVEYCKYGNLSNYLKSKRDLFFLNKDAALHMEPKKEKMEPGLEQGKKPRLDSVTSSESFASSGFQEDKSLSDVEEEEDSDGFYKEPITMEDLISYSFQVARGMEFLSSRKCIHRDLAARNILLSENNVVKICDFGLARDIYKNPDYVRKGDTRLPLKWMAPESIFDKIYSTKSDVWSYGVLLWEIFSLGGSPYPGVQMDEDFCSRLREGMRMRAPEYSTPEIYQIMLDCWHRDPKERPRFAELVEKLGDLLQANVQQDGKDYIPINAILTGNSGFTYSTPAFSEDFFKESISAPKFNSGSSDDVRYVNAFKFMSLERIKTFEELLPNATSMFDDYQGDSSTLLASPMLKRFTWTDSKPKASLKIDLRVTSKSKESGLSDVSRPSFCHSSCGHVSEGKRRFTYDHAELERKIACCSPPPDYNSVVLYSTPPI
Sequence of MAPK8 (human) (P45983 whole entry, looked up): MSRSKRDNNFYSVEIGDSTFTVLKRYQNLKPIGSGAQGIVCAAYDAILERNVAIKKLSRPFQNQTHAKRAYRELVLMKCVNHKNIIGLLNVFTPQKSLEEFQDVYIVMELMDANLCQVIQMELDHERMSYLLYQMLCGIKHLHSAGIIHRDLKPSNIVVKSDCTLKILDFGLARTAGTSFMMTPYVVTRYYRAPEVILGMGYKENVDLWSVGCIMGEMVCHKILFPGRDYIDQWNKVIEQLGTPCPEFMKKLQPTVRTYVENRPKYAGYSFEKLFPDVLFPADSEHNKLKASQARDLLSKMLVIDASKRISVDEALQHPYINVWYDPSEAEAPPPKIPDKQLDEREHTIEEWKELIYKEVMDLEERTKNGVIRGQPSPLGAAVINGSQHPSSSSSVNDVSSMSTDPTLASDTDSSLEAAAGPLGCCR
Sequence of EPHA3 (human) (P29320 whole entry, looked up): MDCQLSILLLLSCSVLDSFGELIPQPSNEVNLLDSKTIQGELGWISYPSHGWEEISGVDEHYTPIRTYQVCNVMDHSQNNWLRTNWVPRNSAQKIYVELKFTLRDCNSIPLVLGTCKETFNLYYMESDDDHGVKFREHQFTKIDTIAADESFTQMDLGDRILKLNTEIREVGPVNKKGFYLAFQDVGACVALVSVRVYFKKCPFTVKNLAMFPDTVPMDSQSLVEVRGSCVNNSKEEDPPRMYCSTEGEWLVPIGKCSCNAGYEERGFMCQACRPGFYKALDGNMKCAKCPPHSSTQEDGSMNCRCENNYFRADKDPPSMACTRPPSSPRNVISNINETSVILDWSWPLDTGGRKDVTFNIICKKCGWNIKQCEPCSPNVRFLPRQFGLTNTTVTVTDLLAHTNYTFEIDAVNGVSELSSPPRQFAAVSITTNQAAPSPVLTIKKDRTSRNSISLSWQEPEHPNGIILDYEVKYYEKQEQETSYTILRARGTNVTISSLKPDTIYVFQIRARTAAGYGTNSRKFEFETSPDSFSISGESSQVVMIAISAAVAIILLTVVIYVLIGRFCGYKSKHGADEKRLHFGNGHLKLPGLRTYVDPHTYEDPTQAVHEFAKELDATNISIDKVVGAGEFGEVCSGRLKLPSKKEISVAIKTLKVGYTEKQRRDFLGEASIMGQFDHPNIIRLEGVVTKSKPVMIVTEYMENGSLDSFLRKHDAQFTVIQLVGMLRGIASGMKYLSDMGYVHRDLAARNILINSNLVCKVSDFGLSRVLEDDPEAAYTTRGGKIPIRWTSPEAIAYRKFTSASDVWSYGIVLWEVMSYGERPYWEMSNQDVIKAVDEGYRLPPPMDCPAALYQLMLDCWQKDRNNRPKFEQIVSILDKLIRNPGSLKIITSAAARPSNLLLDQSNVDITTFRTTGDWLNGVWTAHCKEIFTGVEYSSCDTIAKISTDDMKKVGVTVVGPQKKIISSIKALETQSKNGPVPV
Sequence of IKBKB (human) (O14920 whole entry, looked up): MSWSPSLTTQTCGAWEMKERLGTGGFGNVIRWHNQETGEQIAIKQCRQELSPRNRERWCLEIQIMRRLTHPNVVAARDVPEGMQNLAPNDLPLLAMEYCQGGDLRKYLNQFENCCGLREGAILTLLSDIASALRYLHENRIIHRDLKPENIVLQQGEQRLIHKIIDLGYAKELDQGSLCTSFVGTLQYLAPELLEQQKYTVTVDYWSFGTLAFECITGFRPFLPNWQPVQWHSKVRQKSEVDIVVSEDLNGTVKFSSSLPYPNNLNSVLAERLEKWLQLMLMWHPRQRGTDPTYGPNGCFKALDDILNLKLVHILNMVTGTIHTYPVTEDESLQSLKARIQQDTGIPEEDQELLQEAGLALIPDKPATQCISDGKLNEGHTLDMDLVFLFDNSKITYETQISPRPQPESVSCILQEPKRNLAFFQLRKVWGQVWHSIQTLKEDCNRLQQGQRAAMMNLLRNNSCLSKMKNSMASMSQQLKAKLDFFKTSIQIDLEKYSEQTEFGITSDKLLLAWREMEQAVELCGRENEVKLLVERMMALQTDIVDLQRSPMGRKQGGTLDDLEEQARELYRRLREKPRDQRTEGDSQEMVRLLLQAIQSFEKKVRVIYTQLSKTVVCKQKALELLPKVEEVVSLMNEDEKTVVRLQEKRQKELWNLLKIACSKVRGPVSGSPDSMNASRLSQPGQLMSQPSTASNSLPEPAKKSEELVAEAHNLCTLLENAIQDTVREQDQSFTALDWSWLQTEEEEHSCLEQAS

CCN1CCN(Cc2ccc(NC(=O)c3ccc(C)c(Oc4ccnc5[nH]ccc45)c3)cc2C(F)(F)F)CC1
kinase still bound, per cent of control [1]: 0.5%
kinase still bound, per cent of control [2]: 4.8%
kinase still bound, per cent of control [3]: 5.6%
kinase still bound, per cent of control [4]: 0.75%
residual activity [5]: 6%
kinase still bound, per cent of control [6]: 14%
kinase still bound, per cent of control [7]: 11%
kinase still bound, per cent of control [8]: 23%
residual activity [9]: 3.9%
kinase still bound, per cent of control [10]: 24%
kinase still bound, per cent of control [11]: 3%
kinase still bound, per cent of control [12]: 7%
kinase still bound, per cent of control [13]: 0.3%
kinase still bound, per cent of control [14]: 24%
residual activity [15]: 14%
kinase still bound, per cent of control [16]: 0.6%
kinase still bound, per cent of control [17]: 0.1%
kinase still bound, per cent of control [18]: 13%
kinase still bound, per cent of control [19]: 0.05%
kinase still bound, per cent of control [20]: 0.6%
residual activity [21]: 0.05%
kinase still bound, per cent of control [22]: 5.3%
kinase still bound, per cent of control [23]: 0.1%
kinase still bound, per cent of control [24]: 1.2%
kinase still bound, per cent of control [25]: 9.4%
kinase still bound, per cent of control [26]: 4.7%
kinase still bound, per cent of control [27]: 0%
kinase still bound, per cent of control [28]: 1.6%
kinase still bound, per cent of control [29]: 30%
kinase still bound, per cent of control [30]: 6.2%
kinase still bound, per cent of control [31]: 33%
residual activity [32]: 0.4%
kinase still bound, per cent of control [33]: 3.4%
kinase still bound, per cent of control [34]: 2.2%
kinase still bound, per cent of control [35]: 0.8%
kinase still bound, per cent of control [36]: 8.4%
kinase still bound, per cent of control [37]: 0%
kinase still bound, per cent of control [38]: 0.1%
kinase still bound, per cent of control [39]: 0.7%
kinase still bound, per cent of control [40]: 28%
kinase still bound, per cent of control [41]: 12%
